Laboratory results from patent US4017487A, “7β-(D-5-amino-5-carboxyvaleramido )-7-methoxy-3-substituted-3-cephem-4-carboxylic acid antibiotics” (priority 1974, dated 1977).
“And” between values parts separate entries of the source, which are not always exact repeats. Identical values can stand only once. “Also recorded” adds a separate entry of the source. Like-named read-outs stand apart in the source and are kept apart here.

What was measured:
[1] = system: Escherichia coli 236; test: Bacterial inactivation; details: four hours; B. subtilis (MB-964); 240 min
[2] = Blood appearance and urinary excretion; details: in vivo
[3] = system: Escherichia coli strains; test: microbe, parasite or virus in culture; assay type: cell-based; details: 16 h, read-out: Inhibition Zone Diameter, 166 μg/ml, Pleocidin-resistant, 37° C.
[4] = system: Xanthomonas vesicatoria; test: In vitro disc-plate agar diffusion, antibacterial spectrum (7 mm = no zone); assay type: cell-based; details: 16 h, read-out: Inhibition Zone Diameter
[5] = system: Vibrio percolans MB-1272; test: Disc-plate assay using Vibrio percolans; details: broth
[6] = system: Bacillus sp.; test: In vitro disc-plate agar diffusion, antibacterial spectrum (7 mm = no zone); assay type: cell-based; details: 16 h, 166 μg/ml, inoculum 5 ml/150 ml, 25° C., read-out: Inhibition Zone Diameter
[7] = system: Vibrio percolans; test: as above; assay type: cell-based; details: Comamonas terrigena, 16 h; 166 μg/ml; inoculum 10 ml/150 ml; 27° C.; read-out: Inhibition Zone Diameter
[8] = system: gram-negative and gram-positive infections; test: In vivo protection against infection (general statements); design: species or system mice; details: for in vivo protection / activity: mouse
Source text: (§1) Methods: The method employed in this characterization is as follows: Female white Swiss mice, average weight 20-23 grams, were infected intraperitoneally with 3-20 times the number of organisms calculated to be lethal for 50% of the infected control animals (3-20 LD50 doses). At the time of infection and again six hours later, therapy was given by the designated route. Controls of the virulence of the culture and the toxicity of the antibiotic for uninfected mice were included in the tests. Seven days after infection the test was considered complete and the amount of the antibiotic (I) that would be required to protect 50% of the infected and treated animals was calculated by the method of Knudsen and Curtis; J. Amer. Stat. Assoc. Vol. 42: page 282 (1947).
The method employed in these studies is the same as described above with regard to the in vivo characterization of 810A.

[9] = system: Bacillus subtilis; test: In vitro disc-plate agar diffusion, antibacterial spectrum (7 mm = no zone); assay type: cell-based; details: 16 h, read-out: Inhibition Zone Diameter
[10] = system: Proteus morganii 356; details: washed bacterial cells, 4 h, pH 7.5
[11] = system: Proteus morganii 356; test: In vivo mouse protection test, cephalosporin-resistant clinical isolate; design: species or system white Swiss mice; details: s.c. × 2 doses
Source text: as §1
In addition to the aforementioned in vivo trials of the product, a clinical isolate of Proteus morganii 356 which is resistant to cephalosporins and capable of degrading cephalosporin C, was employed in a mouse protection test performed in the same manner as reported above.

[12] = system: degradative bacteria / enzymatic degradation; test: Resistance to enzymatic degradation / bacterial inactivation (general statements); assay type: biochemical
Source text: Bacterial Inactivation with 810A: An in vitro study was designed to determine the resistance of Antibiotic 810A, to bacterial inactivation as compared with cephalosporin C, cephaloridine and cephalothin.

[13] = Isoelectric point and pH stability; assay type: physicochemical
[14] = system: Alcaligenes viscosus (MB-12); test: Bacterial inactivation, washed bacterial cells; details: 4 hour incubation; assayed on B. subtilis (MB-964) plates
[15] = system: Proteus mirabilis 241; details: washed bacterial cells, 4 h, pH 7.5
[16] = system: Salmonella gallinarum; test: In vitro disc-plate agar diffusion, antibacterial spectrum (7 mm = no zone); assay type: cell-based; details: Salmonella enterica, 16 h, 166 μg/ml, inoculum 10 ml/150 ml, 25° C., read-out: Inhibition Zone Diameter
[17] = system: Diplococcus pneumoniae 2400; test: In vivo mouse protection test; design: species or system white Swiss mice; details: s.c. × two doses
Source text: as §1
(§2) The method employed in these studies is the same as described above with regard to the in vivo characterization of 810A. The results of these tests are described below in Table XIb:
(§3) Administration was by subcutaneous injection. At the completion of the test period, usually seven days after administration, the amount of product required to protect 50% of the mice (ED50) from this otherwise fatal injection was calculated: […]

[18] = system: Paracolobactrum arizonae; test: In vivo mouse protection test; design: species or system white Swiss mice; details: s.c. × two doses
Source text: as §1, §2, §3

[19] = system: Proteus mirabilis; test: In vivo mouse protection test; design: species or system white Swiss mice; details: s.c. × two doses
Source text: as §1, §2, §3

[20] = system: Klebsiella pneumoniae AD; test: In vivo mouse protection test; design: species or system white Swiss mice; details: s.c. × two doses
Source text: as §1, §2, §3

[21] = system: Aerobacter aerogenes; test: In vivo mouse protection test; design: species or system white Swiss mice; details: s.c. × two doses
Source text: as §1, §2, §3

[22] = system: Proteus vulgaris; test: In vivo mouse protection test; design: species or system white Swiss mice; details: s.c. × two doses
Source text: as §1, §2, §3

[23] = system: Pasteurella multocida; test: In vivo mouse protection test; design: species or system white Swiss mice; details: s.c. × two doses
Source text: as §1, §2, §3

[24] = system: Proteus morganii 3202; test: In vivo mouse protection test; design: species or system white Swiss mice; details: s.c. × two doses
Source text: as §1, §2, §3

[25] = system: Salmonella typhosa; test: In vivo mouse protection test; design: species or system white Swiss mice; details: s.c. × two doses
Source text: as §1, §2, §3

[26] = system: Salmonella schottmuelleri; test: In vivo mouse protection test; design: species or system white Swiss mice; details: s.c. × two doses
Source text: as §1, §2, §3

[27] = system: Escherichia coli; test: In vivo mouse protection test; design: species or system white Swiss mice; details: s.c. × two doses
Source text: as §1, §2, §3

[28] = system: Klebsiella pneumoniae B; test: In vivo mouse protection test; design: species or system white Swiss mice; details: s.c. × two doses
Source text: as §1, §2, §3

[29] = system: cephalosporinases; test: Resistance to cephalosporinases; assay type: biochemical
[30] = system: Proteus morganii 251; details: washed bacterial cells, 4 h, pH 7.5
[31] = system: gram-negative and gram-positive bacteria; test: Antibacterial activity (general statements); assay type: cell-based

## CO[C@@]1(NC(=O)CCC[C@@H](N)C(=O)O)C(=O)N2C(C(=O)O)=C(COC(N)=O)CS[C@@H]21 [Example 842A]
[1]
  percent inactivation: 38%
[2]
  appearance in the blood: appears rapidly in the blood
[3]
  zone of inhibition at 166 µg/mL: 18 mm
[4]
  zone of inhibition at 166 µg/mL: 19 mm
[5]; 1:10 dilution, Example 10
  inhibition zone: 21.5 mm.
[5]; 4 days, 0.5 inch discs, Example 9
  inhibition zone: 33 mm.
[5]; four days, 0.5 inch discs, Example 8
  inhibition zone: 31.5 mm.
[6]
  zone of inhibition at 166 µg/mL: 8 mm
[7]
  zone of inhibition at 166 µg/mL: 56 mm
[8]
  in vivo protection / activity: protects against infection with three species of Proteus, two of Salmonella, one strain of Escherichia coli, two of Klebsiella and also against Paracolobactrum arizonae, Aerobacter aerogenes, Pasteurella multocida and Diplococcus pneumoniae 2400
[8]; listed as Antibiotic 842A
  in vivo protection / activity: effectiveness in vivo on Proteus morganii and an effectiveness against the following gram-negative bacteria: Escherichia coli, Proteus vulgaris, Proteus mirabilis, Proteus morganii, Salmonella schottmuelleri, Klebsiella pneumoniae AD, Klebsiella pneumoniae B, and Paracolobactrum arizonae
[8]; oral
  oral protection against infections: protects against infections due to Paracolobactrum arizonae 3720, Proteus vulgaris 1810, and Salmonella schottmuelleri 3010
[9]
  zone of inhibition at 166 µg/mL: 13 mm
[10]
  percent inactivation: 69%
[11]
  ED50 by Subcutaneous Route × 2 Doses (average of Two Trials): 273 µg
[12]; compared with cephalosporin C
  resistance to enzymatic degradation: more resistant to enzymatic degradation than cephalosporin C
[12]; compared with other cephalosporins
  resistance to bacterial inactivation: more stable than the latter against certain microorganisms; also recorded: more resistant than cephalosporin C to inactivation by A. faecalis, A. viscosus, Escherichia coli 236, Proteus morganii 251, Proteus morganii 236 and Proteus mirabilis 241
[13]
  apparent isoelectric point: ~3.5 pH
  pH stability: unstable above pH 9.0; also recorded: relatively stable at pH 1.5; also recorded: unstable above pH 7
[14]
  percent inactivation: 54.4%
[15]
  percent inactivation: 5%
[16]
  zone of inhibition at 166 µg/mL: 21 mm
[17]
  ED50 by Subcutaneous Route × Two Doses: 566 µg
[18]
  ED50 by Subcutaneous Route × Two Doses: 125 µg
[19]
  ED50 by Subcutaneous Route × Two Doses: 276 µg
[20]
  ED50 by Subcutaneous Route × Two Doses: 125 µg
[21]
  ED50 by Subcutaneous Route × Two Doses: 49 µg
[22]
  ED50 by Subcutaneous Route × Two Doses: 51 µg
[23]
  ED50 by Subcutaneous Route × Two Doses: 57 µg
[24]
  ED50 by Subcutaneous Route × Two Doses: 276 µg
[25]
  ED50 by Subcutaneous Route × Two Doses: 33 µg and 34 µg
[26]
  ED50 by Subcutaneous Route × Two Doses: 103 µg
[27]
  ED50 by Subcutaneous Route × Two Doses: 200 µg
[28]
  ED50 by Subcutaneous Route × Two Doses: 125 µg
[29]
  resistance to cephalosporinases: greater resistance to cephalosporinases
[30]
  percent inactivation: 80%
[31]
  antibacterial activity: exhibits activity against Salmonella schottmuelleri 3010, S. gallinarum and S. typhosa; also recorded: inhibits the growth of the following gram-negative bacteria: Escherichia coli, Proteus vulgaris, Alcaligenes faecalis, Brucella bronchiseptica, Salmonella gallinarum, Vibrio percolans and Xanthomonas vesicatoria; also recorded: inhibits the growth of the following gram-positive bacteria: Staphylococcus aureus, Sarcina lutea and Bacillus subtilis
[31]; listed as Antibiotic 842A
  antibacterial activity: enhanced activity against gram-negative microorganisms
